Assay results taken from patent US6716858B1, “Methods for inhibiting diabetic complications” (Kansas University Medical Center, priority 1995, dated 2004).
Where two headings read alike, the source gives them in different places.

How the values were obtained:
[1] = tested on: AGE formation during uninterrupted glycation of ribonuclease A (RNase A) by ribose; experiment: Uninterrupted ribose glycation assay, RNase; assay type: biochemical, bovine; settings: continuous 0.05 M ribose, 6 weeks, inhibitors 0.5-50 mM
Method: (§1) ELISA detection of AGE products. The general method of Engvall (1981, Methods Enzymol. 70:419-439) was used to perform the ELISA. Typically, glycated protein samples were diluted to approximately 1.5 ug/ml in 0.1 M sodium carbonate buffer of pH 9.5 to 9.7. The protein was coated overnight at room temperature onto 96-well polystyrene plates by pippetting 200 ul of the protein solution in each well (0.3 ug/well). After coating, the protein was washed from the wells with a saline solution containing 0.05% Tween-20. The wells were then blocked with 200 ul of 1% casein in carbonate buffer for 2 h at 37° C. followed by washing. Rabbit anti-AGE antibodies were diluted at a titer of about 1:350 in incubation buffer, and incubated for 1 h at 37° C., followed by washing. In order to minimize background readings, antibodies R479 used to detect glycated RNase were raised against glycated BSA, and antibodies R618 used to detect glycated BSA and glycated Hb were raised against glycated RNase. An alkaline phosphatase-conjugated antibody to rabbit IgG was then added as the secondary antibody at a titer of 1:2000 or 1:2500 (depending on lot) and incubated for 1 h at 37° C., followed by washing. The p-nitrophenylphosphate substrate solution was then added (200 ul/well) to the plates, with the absorbance of the released p-nitrophenolate being monitored at 410 nm with a Dynatech MR 4000 microplate reader.
(§2) Uninterrupted ribose glycation assays Bovine serum albumin, ribonuclease A, and human hemoglobin were incubated with ribose at 37° C. in 0.4 M sodium phosphate buffer of pH 7.5 containing 0.02% sodium azide. The protein (10 mg/ml or 1 mg/ml), 0.05 M ribose, and prospective inhibitors (at 0.5, 3, 15 and 50 mM) were introduced into the incubation mixture simultaneously. Solutions were kept in the dark in capped tubes. Aliquots were taken and immediately frozen until analyzed by ELISA at the conclusion of the reaction. The incubations were for 3 weeks (Hb) or 6 weeks (RNase, BSA). Glycation reactions were monitored for constant pH throughout the duration of the experiments.
The inhibitory effects of vitamin B1 and B6 derivatives on the kinetics of antigenic AGE formation were evaluated by polyclonal antibodies specific for AGEs. Initial inhibition studies were carried out on the glycation of bovine ribonuclease A (RNase) in the continuous presence of 0.05 M ribose, which is the concentration of ribose where the rate of AGE formation is near maximal.

[2] = tested on: AGE formation during uninterrupted glycation of bovine serum albumin (BSA) by ribose; experiment: Uninterrupted ribose glycation assay, BSA; assay type: biochemical; settings: 0.05 M ribose, 6 weeks, inhibitors 0.5-50 mM
Method: as §1, §2

[3] = Drug and metabolite levels in plasma and urine, STZ diabetic rat study; assay type: in vivo; settings: for concentration at 21 week / concentration at 28 weeks: rat, plasma, oral; for concentration at 21 week: week 21, 4 animals, read-out: Pyridoxamine in plasma; for concentration at 28 weeks: diabetic animals
Method: Animal studies. Diabetes was induced by a single tail vein injection of 45 mg/kg of STZ in 0.1 M sodium citrate buffer, pH 4.5. Control animals were sham injected with buffer only. Diabetes was confirmed by measuring blood glucose levels at 2 and 3 days after the STZ-injection. Animals with plasma glucose higher than 16 mM were classified as diabetic. The diabetic rats were divided randomly into an untreated diabetic group (n=12) and two diabetic treatment groups, receiving either PM (n=13) or AG (n=12) at 1 g/L in drinking water. Two non-diabetic control groups were included, one receiving no treatment (n=13), the other receiving PM(HCl)2 at 2 g/L in drinking water (n=12); the higher dose of PM in the PM-treated control group was designed to compensate, in part, for the lower water intake of non-diabetic, compared to diabetic animals. All animals were housed individually with a light dark cycle of 12 hours each, and had free access to food and water. To maintain body weight and to limit hyperglycemia, diabetic animals received 3 IU of ultralente insulin (Humulin U, Eli Lilly) three times per week; this was increased to 5 IU after week 15 to adjust for the increase in body weight.
Measurement of drug levels in plasma and urine. PM and AG concentrations in plasma were measured by reverse phase high performance liquid chromatography (RP-HPLC). PM and its B6 vitamers were assayed as described by Sampson and O'Connor (Nutrition Res. 9:259-272 (1989)) and Sakurai et al. (J. Nutr. Sci. Vitaminol. 37:341-348 (1991)), using 293/393 nm excitation and emission wavelengths. AG was quantified at 380 nm as the 4-nitrobenzaldehyde conjugate (Beaven et al. 1969. J. Pharmacol. Exp. Therapeutics 165:14-22).

[4] = tested on: post-Amadori AGE formation, BSA Amadori intermediate; experiment: Interrupted (post-Amadori) ribose glycation assay, BSA; assay type: biochemical, bovine
Method: as §1
Glycation was first carried out by incubating protein (10 mg/ml) with 0.5 M ribose at 37° C. in 0.4 M phosphate buffer at pH 7.5 containing 0.2% sodium azide for 24 h in the absence of inhibitors. Glycation was then interrupted to remove excess and reversibly bound (Schiff base) sugar by extensive dialysis against frequent cold buffer changes at 4° C. The glycated intermediate samples containing maximal amount of Amadori product and little AGE (depending on protein) were then quickly warmed to 37° C. without re-addition of ribose. This initiated conversion of Amadori intermediates to AGE products in the absence or presence of various concentrations (typically 3, 15 and 50 mM) of prospective inhibitors. Aliquots were taken and frozen at various intervals for later analysis. The solutions were kept in capped tubes and opened only to remove timed aliquots that were immediately frozen for later carrying out the various analyses.

[5] = 24 h in 0.5 M ribose, then free ribose removed, 37° C.

| urinary PM ([3]; 23 weeks, PM intake 801±22 μmol/day) [µmol/day] | plasma PM concentration ([3]; non-diabetic animals, PM(HCl)2 2 g/L in drinking water, from first week) [µM] | concentration at 21 week ([3]; 1 g/L in drinking water, Diabetic + PM (1 g/L)) [µM] | concentration at 21 week ([3]; 2 g/L in drinking water, Control + PM (2 g/L)) [µM] | concentration at 28 weeks ([3]; 1 g/L in drinking water) [µM] | Structure (SMILES) | inhibition of overall kinetics of AGE formation from ribose [1] | inhibition of overall kinetics of AGE formation from ribose [2] | inhibition of post-Amadori AGE formation ([4]; 50 mM inhibitor) | inhibition of post-Amadori AGE formation [4, 5] |
| --- | --- | --- | --- | --- | --- | --- | --- | --- | --- |
| 824 ± 44 | ~6 | 76 ± 18 | 6.3 ± 2.1 | 106 ± 17 | Cc1ncc(CO)c(CN)c1O [pyridoxamine] | best inhibitor of the “final” levels of AGE formed on RNase | exhibited some inhibition at lower concentrations, and at the highest concentration tested appeared to inhibit the final levels of AGE formed more effectively than any of the other B6 derivatives |  |  |
|  |  |  |  | 87 ± 10 | N=C(N)NN [aminoguanidine, reference compound] | decreased the rate of AGE formation on RNase, but did not reduce the final level of AGE formed | appearing to slow the rate of AGE formation without significantly affecting the final levels of AGE formed | about 20% | Comparable results |
|  |  |  |  |  | Cc1ncc(C[n+]2csc(CCO[P@](=O)(O)OP(=O)(O)O)c2C)c(N)n1 [thiamine pyrophosphate] | both the rate of AGE formation and the final levels of AGE produced at the plateau appeared diminished | inhibited the final levels of AGEs formed, without greatly affecting the rate of AGE formation |  | inhibited AGE formation more effectively than the other B1 derivatives |
